Data published in US4148795A, “Dithiocarbamate ester bactericides and fungicides” (American Cyanamid Company, priority 1976, dated 1979).
Values joined by “and” are separate entries in the source; they are usually repeats but may differ in a detail not shown here. Identical values can stand only once. Like-named read-outs stand apart in the source and are kept apart here.

Legend:
Phytophthora infestans = assay type: in vivo; design: scale not given here; settings: Tomato Late Blight, five days
Piricularia oryzae = assay type: in vivo; design: scale not given here; settings: Rice Blast, five days
[1] = tested on: Colletotrichum lagenarium; settings: in vivo; further: key: 5: clean, no disease; 4: trace of disease; 3: slight disease; 2: moderate disease; 1: severe disease; 0: like controls
Pseudomonas solaracaerum = assay type: cell-based; settings: 100 ppm, 72 hours at 23° C
Aspergillus niger = test: Agar dilution plate; assay type: cell-based; settings: An; 100 ppm, 72 hours at 23° C
In short: (§1)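 Active ingredient is incorporated at about 100 ppm into Sabouraud's dextrose agar. The solidified plate is inoculated with the organism and incubated roughly 72 hours at 23° C. Growth is then rated 0 or 5, where 5 means 100% effectiveness.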

Monilinia fructicola = test: Agar dilution plate; assay type: cell-based; settings: Mf; 100 ppm, 72 hours at 23° C
In short: as §1

Pythium de Baryanum = test: Agar dilution plate; assay type: cell-based; settings: Pd; 100 ppm, 72 hours at 23° C
In short: as §1

Fusarium lycopersici = test: Agar dilution plate; assay type: cell-based; settings: Fl; 100 ppm, 72 hours at 23° C
In short: as §1

Rhizoctonia solani = test: Agar dilution plate; assay type: cell-based; settings: Rs; 100 ppm, 72 hours at 23° C
In short: as §1

Verticillium albo-atrum = test: Agar dilution plate; assay type: cell-based; settings: Va; 100 ppm, 72 hours at 23° C
In short: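 Compounds incorporated at about 100 ppm into Sabouraud's dextrose agar, then inoculated with the fungus and incubated about 72 hours at 23° C. Growth scored as 0 (no control) or 5 (100% effectiveness); test repeated twice.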

Xanthomonas vesicatoria = assay type: cell-based; settings: 100 ppm; subcultures 72 hours at 37° C; further: key: 0: No Effect; 9: Kill of Bacteria; 5: Stasis, but not Kill of all Bacteria
Staphylococcus aureus = assay type: cell-based; settings: 100 ppm; subcultures 72 hours at 37° C; further: key: 0: No Effect; 9: Kill of Bacteria; 5: Stasis, but not Kill of all Bacteria
Venturia inaequalis = settings: in vivo; further: key: 5: clean, no disease; 4: trace of disease; 3: slight disease; 2: moderate disease; 1: severe disease; 0: like controls
[2] = tested on: Stemphylium sarcinaeforme; test: Agar dilution plate; assay type: cell-based; settings: Ss; 100 ppm, 72 hours at 23° C
In short: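 Compound incorporated into Sabouraud's dextrose agar at about 100 ppm, inoculated with Stemphylium sarcinaeforme and incubated about 72 hours at 23 °C. Growth scored 0 (no control) or 5 (100% effectiveness), test run in repeat.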

Aerobacter aerogenes = assay type: cell-based; settings: 100 ppm; subcultures 72 hours at 37° C; further: key: 0: No Effect; 9: Kill of Bacteria; 5: Stasis, but not Kill of all Bacteria
[3] = tested on: Collectotrichum lagenarium; test: Agar dilution plate; assay type: cell-based; settings: Cl; 100 ppm, 72 hours at 23° C
In short: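 Compounds were incorporated at about 100 ppm in Sabouraud's dextrose agar, inoculated, and incubated about 72 h at 23 °C. Growth was scored 0 (no control) or 5 (100% effectiveness), and the test was repeated twice.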

| SMILES | disease control index (Piricularia oryzae; 150 ppm) | disease control index (Piricularia oryzae; 300 ppm) | disease control index [1] | Agar Dilution Plate rating (Pseudomonas solaracaerum) | disease control index (Phytophthora infestans; at 100 ppm) | disease control index (Phytophthora infestans; at 500 ppm) | disease control index (Piricularia oryzae; at 100 ppm) | disease control index (Piricularia oryzae; at 500 ppm) | Agar Dilution Plate rating (Aspergillus niger) | Agar Dilution Plate rating (Monilinia fructicola) | Agar Dilution Plate rating (Pythium de Baryanum) | Agar Dilution Plate rating (Fusarium lycopersici) | Agar Dilution Plate rating (Rhizoctonia solani) | Agar Dilution Plate rating (Verticillium albo-atrum) | Antibacterial Activity rating (Xanthomonas vesicatoria) | Antibacterial Activity rating (Staphylococcus aureus) | disease control index (Venturia inaequalis) | Agar Dilution Plate rating [2] | Antibacterial Activity rating (Aerobacter aerogenes) | Agar Dilution Plate rating [3] | also measured |
| --- | --- | --- | --- | --- | --- | --- | --- | --- | --- | --- | --- | --- | --- | --- | --- | --- | --- | --- | --- | --- | --- |
| O=[N+]([O-])C(CSC(=S)N1CCCCC1)CSC(=S)N1CCCCC1 [Example 3, 2-Nitrotrimethylene 1-Piperidinecarbodithioate] | 5 | 5 | 4 | – | – | – | – | – | – | – | – | – | – | – | – | – | – | – | – | – | disease control index (Phytophthora infestans; 150 ppm): 4; disease control index (Phytophthora infestans; 300 ppm): 4 |
| CN(C)C(=S)SC(c1ccc(Cl)cc1Cl)C(C(c1ccc(Cl)cc1Cl)N(C)C)[N+](=O)[O-] (stereo not drawn) [Example 8, 1,3-Bis(2,4-dichlorophenyl)-3-dimethylamino-2-nitropropyl Dimethyldithiocarbamate] | – | – | 5 | 0 | 5 | 5 | 5 | 5 | 0 | 5 (100% effectiveness of the test compound against the specified organism) | 0 | 0 | 0 | 5 (100% effectiveness of the test compound against the specified organism) | 0 | 5 | 5 and 4 | 0 | 0 | 0 | – |
| O=[N+]([O-])CC(SC(=S)N1CCCCC1)c1ccccc1 (stereo not drawn) [Example 16, α-(Nitromethyl)benzyl 1-Piperidinecarbodithioate] | 5 | 5 | 5 | – | – | – | – | – | – | – | – | – | – | – | – | – | 5 | – | – | – | – |
| CC(C(SC(=S)N(C)C)c1ccccc1)[N+](=O)[O-] (stereo not drawn) [Example 18, α-(1-Nitroethyl)benzyl Dimethyldithiocarbamate] | – | – | 5 | 0 | 5 | 5 | 5 | 5 | 0 | 5 (100% effectiveness of the test compound against the specified organism) | 5 (100% effectiveness of the test compound against the specified organism) | 5 (100% effectiveness of the test compound against the specified organism) | 5 (100% effectiveness of the test compound against the specified organism) | 5 (100% effectiveness of the test compound against the specified organism) | 0 | 5 | 5 | 5 (100% effectiveness of the test compound against the specified organism) | 0 | 5 (100% effectiveness of the test compound against the specified organism) | – |
